Reference: PubChem BioAssay (NCI)
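Step 1: Grow cells in 96-well plates. Step 2: Expose to compound for 48 hours at 5 concentrations. Step 3: Interpolate endpoints linearly; if unreached, use highest concentration. At the GI50, growth is halved. At the TGI there is no net growth.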

Assays:
Assay in all cases: growth of human tumour cells (NCI), 48 h
SK-MEL-5 melanoma = system: SK-MEL-5 melanoma
HT29 colon = system: HT29 colon
MDA-MB-231 breast = system: MDA-MB-231 breast
HCT-116 colon = system: HCT-116 colon
NCI/ADR-RES ovarian = system: NCI/ADR-RES ovarian
TK-10 renal = system: TK-10 renal
OVCAR-3 ovarian = system: OVCAR-3 ovarian
SF-539 CNS = system: SF-539 CNS
CAKI-1 renal = system: CAKI-1 renal
HCT-15 colon = system: HCT-15 colon
NCI-H23 lung = system: NCI-H23 lung
HCC-2998 colon = system: HCC-2998 colon
U251 CNS = system: U251 CNS
SNB-19 CNS = system: SNB-19 CNS
SN12C renal = system: SN12C renal
UO-31 renal = system: UO-31 renal
BT-549 breast = system: BT-549 breast
RXF 393 renal = system: RXF 393 renal
HS 578T breast = system: HS 578T breast
LOX IMVI melanoma = system: LOX IMVI melanoma
NCI-H522 lung = system: NCI-H522 lung
ACHN renal = system: ACHN renal
SF-268 CNS = system: SF-268 CNS
RPMI-8226 leukemia = system: RPMI-8226 leukemia
UACC-62 melanoma = system: UACC-62 melanoma
A498 renal = system: A498 renal
SK-MEL-2 melanoma = system: SK-MEL-2 melanoma
OVCAR-8 ovarian = system: OVCAR-8 ovarian
MCF7 breast = system: MCF7 breast
SNB-75 CNS = system: SNB-75 CNS
PC-3 prostate = system: PC-3 prostate
OVCAR-4 ovarian = system: OVCAR-4 ovarian
CCRF-CEM leukemia = system: CCRF-CEM leukemia
SK-MEL-28 melanoma = system: SK-MEL-28 melanoma
HL-60(TB) leukemia = system: HL-60(TB) leukemia
786-0 renal = system: 786-0 renal
NCI-H460 lung = system: NCI-H460 lung
T-47D breast = system: T-47D breast
COLO 205 colon = system: COLO 205 colon
MDA-MB-435 = system: MDA-MB-435
OVCAR-5 ovarian = system: OVCAR-5 ovarian
SF-295 CNS = system: SF-295 CNS
HOP-62 NSCLC = system: HOP-62 NSCLC
MALME-3M melanoma = system: MALME-3M melanoma
M14 melanoma = system: M14 melanoma
SW-620 colon = system: SW-620 colon
NCI-H226 lung = system: NCI-H226 lung
UACC-257 melanoma = system: UACC-257 melanoma
A549 NSCLC = system: A549 NSCLC
HOP-92 NSCLC = system: HOP-92 NSCLC
EKVX NSCLC = system: EKVX NSCLC
KM12 colon = system: KM12 colon
DU-145 prostate = system: DU-145 prostate
IGROV1 ovarian = system: IGROV1 ovarian
MOLT-4 leukemia = system: MOLT-4 leukemia
SK-OV-3 ovarian = system: SK-OV-3 ovarian
SR leukemia = system: SR leukemia

For `O=C(O)c1ccc(NCc2nc3cc(Cl)c(Cl)cc3[nH]2)cc1`, the GI50 (SK-MEL-5 melanoma) was 93.4 µM, the TGI (SK-MEL-5 melanoma) was > 100 µM and the GI50 (HT29 colon) was > 100 µM. For the same molecule, the TGI (HT29 colon) was > 100 µM, the GI50 (MDA-MB-231 breast) was > 100 µM and the TGI (MDA-MB-231 breast) was > 100 µM. For the same molecule, the GI50 (HCT-116 colon) was > 100 µM, the TGI (HCT-116 colon) was > 100 µM and the GI50 (NCI/ADR-RES ovarian) was > 100 µM. For the same molecule, the TGI (NCI/ADR-RES ovarian) was > 100 µM, the GI50 (TK-10 renal) was > 100 µM and the TGI (TK-10 renal) was > 100 µM. For the same molecule, the GI50 (OVCAR-3 ovarian) was 60.7 µM, the TGI (OVCAR-3 ovarian) was > 100 µM and the GI50 (SF-539 CNS) was > 100 µM. For the same molecule, the TGI (SF-539 CNS) was > 100 µM, the GI50 (CAKI-1 renal) was > 100 µM and the TGI (CAKI-1 renal) was > 100 µM. The GI50 (HCT-15 colon) was 96.9 µM, the TGI (HCT-15 colon) was > 100 µM and the GI50 (NCI-H23 lung) was > 100 µM. The TGI (NCI-H23 lung) was > 100 µM, the GI50 (HCC-2998 colon) was 72.3 µM and the TGI (HCC-2998 colon) was > 100 µM. For the same molecule, the GI50 (U251 CNS) was > 100 µM, the TGI (U251 CNS) was > 100 µM and the GI50 (SNB-19 CNS) was > 100 µM. The TGI (SNB-19 CNS) was > 100 µM, the GI50 (SN12C renal) was > 100 µM and the TGI (SN12C renal) was > 100 µM. The GI50 (UO-31 renal) was > 100 µM, the TGI (UO-31 renal) was > 100 µM and the GI50 (BT-549 breast) was > 100 µM. The TGI (BT-549 breast) was > 100 µM, the GI50 (RXF 393 renal) was > 100 µM and the TGI (RXF 393 renal) was > 100 µM. The GI50 (HS 578T breast) was > 100 µM, the TGI (HS 578T breast) was > 100 µM and the GI50 (LOX IMVI melanoma) was > 100 µM. For the same molecule, the TGI (LOX IMVI melanoma) was > 100 µM, the GI50 (NCI-H522 lung) was 66.2 µM and the TGI (NCI-H522 lung) was > 100 µM. The GI50 (ACHN renal) was > 100 µM, the TGI (ACHN renal) was > 100 µM and the GI50 (SF-268 CNS) was > 100 µM. The TGI (SF-268 CNS) was > 100 µM, the GI50 (RPMI-8226 leukemia) was > 100 µM and the TGI (RPMI-8226 leukemia) was > 100 µM. For the same molecule, the GI50 (UACC-62 melanoma) was > 100 µM, the TGI (UACC-62 melanoma) was > 100 µM and the GI50 (A498 renal) was > 100 µM. The TGI (A498 renal) was > 100 µM, the GI50 (SK-MEL-2 melanoma) was 5.5 µM and the TGI (SK-MEL-2 melanoma) was 41.6 µM. The GI50 (OVCAR-8 ovarian) was > 100 µM, the TGI (OVCAR-8 ovarian) was > 100 µM and the GI50 (MCF7 breast) was 6.03 µM. The TGI (MCF7 breast) was > 100 µM, the GI50 (SNB-75 CNS) was > 100 µM and the TGI (SNB-75 CNS) was > 100 µM. For the same molecule, the GI50 (PC-3 prostate) was > 100 µM, the TGI (PC-3 prostate) was > 100 µM and the GI50 (OVCAR-4 ovarian) was 40.9 µM. The TGI (OVCAR-4 ovarian) was > 100 µM, the GI50 (CCRF-CEM leukemia) was > 100 µM and the TGI (CCRF-CEM leukemia) was > 100 µM. For the same molecule, the GI50 (SK-MEL-28 melanoma) was 3.77 µM, the TGI (SK-MEL-28 melanoma) was > 100 µM and the GI50 (HL-60(TB) leukemia) was > 100 µM. For the same molecule, the TGI (HL-60(TB) leukemia) was > 100 µM, the GI50 (786-0 renal) was > 100 µM and the TGI (786-0 renal) was > 100 µM. For the same molecule, the GI50 (NCI-H460 lung) was > 100 µM, the TGI (NCI-H460 lung) was > 100 µM and the GI50 (T-47D breast) was > 100 µM. For the same molecule, the TGI (T-47D breast) was > 100 µM, the GI50 (COLO 205 colon) was > 100 µM and the TGI (COLO 205 colon) was > 100 µM. The GI50 (MDA-MB-435) was > 100 µM, the TGI (MDA-MB-435) was > 100 µM and the GI50 (OVCAR-5 ovarian) was > 100 µM. The TGI (OVCAR-5 ovarian) was > 100 µM, the GI50 (SF-295 CNS) was > 100 µM and the TGI (SF-295 CNS) was > 100 µM. The GI50 (HOP-62 NSCLC) was > 100 µM, the TGI (HOP-62 NSCLC) was > 100 µM and the GI50 (MALME-3M melanoma) was 0.424 µM. For the same molecule, the TGI (MALME-3M melanoma) was 1.69 µM, the GI50 (M14 melanoma) was > 100 µM and the TGI (M14 melanoma) was > 100 µM. The GI50 (SW-620 colon) was > 100 µM, the TGI (SW-620 colon) was > 100 µM and the GI50 (NCI-H226 lung) was > 100 µM. The TGI (NCI-H226 lung) was > 100 µM, the GI50 (UACC-257 melanoma) was 5.28 µM and the TGI (UACC-257 melanoma) was 77.6 µM. For the same molecule, the GI50 (A549 NSCLC) was > 100 µM, the TGI (A549 NSCLC) was > 100 µM and the GI50 (HOP-92 NSCLC) was > 100 µM. For the same molecule, the TGI (HOP-92 NSCLC) was > 100 µM, the GI50 (EKVX NSCLC) was > 100 µM and the TGI (EKVX NSCLC) was > 100 µM. For the same molecule, the GI50 (KM12 colon) was > 100 µM, the TGI (KM12 colon) was > 100 µM and the GI50 (DU-145 prostate) was > 100 µM. For the same molecule, the TGI (DU-145 prostate) was > 100 µM, the GI50 (IGROV1 ovarian) was > 100 µM and the TGI (IGROV1 ovarian) was > 100 µM. The GI50 (MOLT-4 leukemia) was > 100 µM, the TGI (MOLT-4 leukemia) was > 100 µM and the GI50 (SK-OV-3 ovarian) was > 100 µM. For the same molecule, the TGI (SK-OV-3 ovarian) was > 100 µM, the GI50 (SR leukemia) was 69.6 µM and the TGI (SR leukemia) was > 100 µM.
